Data: ChEMBL document CHEMBL1201862, “PubChem BioAssay data set” (2004)
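Cells were grown in 96-well plates and exposed to each compound for 48 hours at five concentrations; endpoints were interpolated linearly between bracketing concentrations, or set to the highest concentration if not reached. GI50: concentration for 50% inhibition of growth.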 Calls of active or inactive are those of the source. Rule as the data show it: active = GI50 up to about 1.1 µM and inactive = higher.

Columns and labels:
Experiment in all cases: DTP human tumour cell line panel, 48 h
[1] = tested on: NCI-H23
[2] = tested on: OVCAR-3
[3] = tested on: SNB-78
[4] = tested on: LOX IMVI
[5] = tested on: A549
[6] = tested on: HOP-92
[7] = tested on: HOP-62
[8] = tested on: NCI-H522
[9] = tested on: SK-OV-3
[10] = tested on: UO-31
[11] = tested on: HCT-15
[12] = tested on: SF-268
[13] = tested on: SN12C
[14] = tested on: EKVX
[15] = tested on: RXF 393
[16] = tested on: SK-MEL-2
[17] = tested on: SK-MEL-5
[18] = tested on: UACC-257
[19] = tested on: RXF 631
[20] = tested on: M19-MEL
[21] = tested on: DMS-114
[22] = tested on: A498
[23] = tested on: KM12
[24] = tested on: U-251
[25] = tested on: SF-539
[26] = tested on: DLD-1
[27] = tested on: HL-60
[28] = tested on: 786-0
[29] = tested on: UACC-62
[30] = tested on: Malme-3M
[31] = tested on: RPMI-8226
[32] = tested on: CCRF-CEM
[33] = tested on: TK-10
[34] = tested on: SNB-75
[35] = tested on: HT-29
[36] = tested on: HOP-18
[37] = tested on: OVCAR-4
[38] = tested on: HCC 2998
[39] = tested on: M14
[40] = tested on: COLO 205
[41] = tested on: IGROV-1
[42] = tested on: HCT-116
[43] = tested on: SNB-19
[44] = tested on: KM-20L2
[45] = tested on: SW-620
[46] = tested on: NCI-H460
[47] = tested on: OVCAR-5
[48] = tested on: K562
[49] = tested on: LXFL 529
[50] = tested on: OVCAR-8
[51] = tested on: ACHN
[52] = tested on: SK-MEL-28
[53] = tested on: SF-295
[54] = tested on: DMS-273
[55] = tested on: MOLT-4
[56] = tested on: CAKI-1
[57] = tested on: NCI-H226

Measured: GI50

C(=C1\CCC/C(=C/c2ccccc2)C1=NNc1ccccc1)/c1ccccc1
> 100 µM: [11]
inactive: [1] > 100 µM | [2] > 100 µM | [3] > 100 µM | [4] > 100 µM | [5] > 100 µM | [6] > 100 µM | [7] 46.7 µM | [8] > 100 µM | [9] > 100 µM | [10] > 100 µM | [12] > 100 µM | [13] > 100 µM | [14] > 100 µM | [15] 38.2 µM | [16] > 100 µM | [17] > 100 µM | [18] > 100 µM | [19] > 100 µM | [20] > 100 µM | [21] > 100 µM | [22] > 100 µM | [23] > 100 µM | [24] > 100 µM | [25] > 100 µM | [26] > 100 µM | [27] > 100 µM | [28] > 100 µM | [29] > 100 µM | [30] > 100 µM | [31] > 100 µM | [32] > 100 µM | [33] > 100 µM | [34] 87.3 µM | [35] > 100 µM | [36] > 100 µM | [37] > 100 µM | [38] > 100 µM | [39] > 100 µM | [40] > 100 µM | [41] > 100 µM | [42] > 100 µM | [43] > 100 µM | [44] > 100 µM | [45] > 100 µM | [46] > 100 µM | [47] > 100 µM | [48] > 100 µM | [49] > 100 µM | [50] > 100 µM | [51] > 100 µM | [52] > 100 µM | [53] > 100 µM | [54] > 100 µM | [55] > 100 µM

COC1CCC2C(NS(=O)(=O)c3ccc(C)cc3)CCCC2O1.Cc1ccc(S(=O)(=O)NC(C)(C)C=O)cc1 (centres undefined)
inactive: [1] 11.1 µM | [2] 13 µM | [3] > 34.5 µM | [4] 5.62 µM | [5] 16.2 µM | [6] 3.66 µM | [7] 20.8 µM | [8] 9.02 µM | [9] > 34.5 µM | [10] 15 µM | [56] 20.3 µM | [12] > 34.5 µM | [13] 23.5 µM | [14] 31 µM | [15] 11.4 µM | [16] > 34.5 µM | [17] 7.76 µM | [57] 10.3 µM | [18] 3.29 µM | [19] 10.2 µM | [20] 12.7 µM | [21] 9.31 µM | [22] > 34.5 µM | [23] 12.4 µM | [24] > 34.5 µM | [25] 20 µM | [26] 20.3 µM | [27] 8.18 µM | [28] 19.9 µM | [29] 33 µM | [30] 23 µM | [31] 6.21 µM | [32] 10.2 µM | [33] 18.1 µM | [34] 25 µM | [35] 11.4 µM | [37] 12.6 µM | [38] 33.5 µM | [39] 16.7 µM | [41] 16.4 µM | [42] 7.33 µM | [43] 16.1 µM | [44] 32.6 µM | [45] > 34.5 µM | [46] 11.6 µM | [47] > 34.5 µM | [48] 9.68 µM | [50] 16.1 µM | [51] 24.8 µM | [52] 30 µM | [53] 8.51 µM | [54] 8.41 µM | [55] 8.3 µM
15.6 µM: [11]
